Test results as given in patent US10716807B2, “Method of treating relapsing-remitting multiple sclerosis using arsenic trioxide” (Medsenic, priority 2017, dated 2020).
“Also recorded” adds a separate entry of the source.

How the values were obtained:
MOG35-55-induced EAE = assay: MOG35-55-induced prophylactic/therapeutic EAE model; type: in vivo, C57BL/6 mice; conditions: for EAE disease severity compared to the vehicle group / EAE onset compared to the vehicle group: started 7 days before EAE induction
Procedure: The study objective was to evaluate the effects of arsenic trioxide (1 mg/ml), administered i.v., QD, starting 7 days before EAE induction, on EAE development in the MOG35-55-induced prophylactic/therapeutic EAE model, known as the more robust and direct animal model to trigger and observe the autoimmune cascade involving the central nervous system and ensuing demyelination.
EAE was induced by MOG35-55/CFA immunization and pertussis toxin injection in C57BL/6 mice.
There were 2 experimental groups with 12 mice per group. Mice were treated prophylactically.
The study used a total of 24 female C57BL/6 mice (Taconic Farms, 10 weeks old).
EAE was induced in all mice as follows:
Day 0, Hour 0—Immunization with MOG35-55/CFA
Day 0, Hour 2—Injection of pertussis toxin
Day 1, Hour 0—2nd injection of pertussis toxin (24 hours after initial immunization)
Mice were injected subcutaneously at two sites in the back with the emulsion component (containing MOG35-55) of Hooke Kit™ […] Emulsion PTX, catalog number EK-2110 (Hooke Laboratories, Lawrence Mass.). One site of injection was in the area of upper back, approximately 1 cm caudal of the neck line. The second site was in the area of lower back, approximately 2 cm cranial of the base of the tail. The injection volume was 0.1 mL at each site.
Within 2 hours of the injection of emulsion, and then again 24 hours after the injection of emulsion, the pertussis toxin component of the kit was administered intraperitoneally. The volume of each injection was 0.1 mL.
To optimize disease severity for this particular study, the pertussis toxin was administered at 165 ng/dose for the first injection and 154 ng/dose for the second injection.
There were 2 groups of 12 mice each.
Mice were assigned to groups 7 days before immunization (Day −7), balanced to achieve similar weight at the start of the study.
Treatment was according to Table 1 below.
Dosing of all mice was at the same time (+/−1 hour) on each day.
Dosing of all mice started on Day −7 (7 days before EAE induction) and continued until Day 27.
Group 2 was dosed at 2 mg/kg from Day −7 to Day −1, and at 3 mg/kg until Day 27.
Mice were scored for EAE and weighed until Day 35, the last day of the study.
Readouts were EAE scores and body weight at the end of the study.
Mice were scored daily from Day 7 after immunization until the end of the study, and body weight was measured three times/week (Monday, Wednesday and Friday), starting on Day −7.
Scoring was performed blind, by a person unaware of both treatment and of previous scores for each mouse.
EAE was scored on scale 0 to 5: • 0 No obvious changes in motor functions of the mouse in comparison to non-immunized mice. • When picked up by the tail, the tail has tension and is erect. Hind legs are usually spread apart. When the mouse is walking, there is no gait or head tilting. • 1 Limp tail. • When the mouse is picked up by the tail, instead of being erect, the whole tail drapes over finger. • 2 Limp tail and weakness of hind legs. • When mouse is picked up by tail, legs are not spread apart, but held closer together. When the mouse is observed walking, it has a clearly apparent wobbly walk. • 3 Limp tail and complete paralysis of hind legs (most common). • OR • Limp tail with paralysis of one front and one hind leg. • OR • ALL of: • Severe head tilting, • Walking only along the edges of the cage, • Pushing against the cage wall, • Spinning when picked up by the tail. • 4 Limp tail, complete hind leg and partial front leg paralysis. • Mouse is minimally moving around the cage but appears alert and feeding. • Usually, euthanasia is recommended after the mouse scores level 4 for 2 days. When the mouse is euthanized because of severe paralysis, score of 5 is entered for that mouse for the rest of the experiment. • 5 Complete hind and complete front leg paralysis, no movement around the cage. • OR • Mouse is spontaneously rolling in the cage. • OR • Mouse is found dead due to paralysis. […]

IL-6 = assay: Cytokine production in spleen cell cultures after MOG35-55/CFA immunization (cytokine bead assay); type: in vivo, mice; conditions: spleen cells collected 11 days after immunization, cultured 72 hours with MOG35-55 (0, 0.7, 2.2, 6.7 and 20.0 μg/mL); treatment from Day -16
Procedure: The objective of this study was to determine the effects of arsenic trioxide on cytokine production by T lymphocytes from draining lymph nodes and spleen after immunization with MOG35-55/CFA.
There were 2 experimental groups with 6 mice/group.
Treatment started on Day −16.
Mice were immunized with MOG35-55/CFA on Day 0.
Eleven days after immunization, mice were euthanized, spleens and lymph nodes collected and cell suspensions prepared. Cell suspensions were cultured for 3 days in the presence of multiple concentrations of MOG35-55. The culture supernatants were collected at the end of this 3-day culture period. The concentrations of 7 cytokines (IL-2, IL-4, IL-6, IL-10, IL-17A, TNF, and IFN-γ) were determined in the culture supernatants using Th1/Th2/Th17 cytokine bead assay (CBA) kit from Becton Dickinson.

[1] = 3 mg/kg, i.v., QD, listed as Arsenic trioxide
[2] = to Day 28 (end of treatment), 3 mg/kg, i.v., QD

arsenic trioxide
Body weight compared to the vehicle treated controls (MOG35-55-induced EAE; 3 mg/kg, i.v., QD): higher body weight | EAE disease severity compared to the vehicle group (MOG35-55-induced EAE; 3 mg/kg, i.v., QD): overall severity was lower; also recorded: reducing disease severity | EAE onset compared to the vehicle group (MOG35-55-induced EAE; 3 mg/kg, i.v., QD): disease onset was postponed; also recorded: efficacious at postponing EAE onset | EAE disease severity compared to the vehicle group (MOG35-55-induced EAE; [1]): reducing disease severity | EAE onset compared to the vehicle group (MOG35-55-induced EAE; [1]): efficacious at postponing EAE onset | Efficacy after the treatment was stopped (MOG35-55-induced EAE; 7 days after the treatment was stopped (Day 35)): efficacy was maintained 7 days after the treatment was stopped | Day 27 % body weight +/- SD (MOG35-55-induced EAE; Day 27, 3 mg/kg, i.v., QD): 97.3 +/− 5.1% | End % body weight +/- SD (MOG35-55-induced EAE; Day 35 (end of study), 3 mg/kg, i.v., QD): 93.2 +/− 6.4% | Deaths in group (MOG35-55-induced EAE; group of 12 mice, 3 mg/kg, i.v., QD, death not from EAE nor from i.v. dosing complications): One mouse died | EAE incidence (%) (MOG35-55-induced EAE; to Day 28 (end of treatment), 2 mg/kg Day -7 to -1, then 3 mg/kg to Day 27, i.v., QD): 100% | Mean day of onset +/- SEM (sick mice) (MOG35-55-induced EAE; [2]): 17.5 ± 1.1 days | Median day of onset (all mice) (MOG35-55-induced EAE; [2]): 17.0 days | MMS +/- SD (mean maximum score) (MOG35-55-induced EAE; to Day 28 (end of treatment), EAE scale 0 to 5, 3 mg/kg, i.v., QD): 3.41 +/− 0.30 | IL-6 concentration in spleen cell cultures (IL-6): significant reduction of IL-6 concentration
